Experimental data reported in patent US5264565A, “Nucleic acid encoding the D2 /Ml chimeric receptor” (Affymax Technologies, N.V., priority 1991, dated 1993).

Legend:
D2 /ml receptor = experiment: Competition binding assay with [3H]-spiperone, D2/ml chimeric receptor; design: species or system human; details: for Ki: D2/ml Receptor, 0.5 nM [3H]-spiperone, anti-log of mean log Ki, three experiments, Cheng-Prusoff
Experimental: (§1) Cells were detached from culture flasks with EDTA, pelleted at 1,000×g and resuspended in 1× binding buffer (100 mM Tris; 120 mM NaCl; 5 mM KCl; 1 mM MgCl2; 2 mM CaCl2; 1.1 mM ascorbic acid; pH 7.4) at ~1×10^6 cells/ml. Cells were homogenized with a Polytron (Brinkman) and the crude membrane fraction was pelleted at 17,000× g for 10 min. […] Triplicate binding reactions were done in IX binding buffer for 30 min. at 37°, then stopped by filtration through glass-fiber filters (Skatron) that were pre-soaked in 0.1% polyethyleneimine, followed by a 5 sec. wash with ice cold 0.1× binding buffer. […] Competing ligands were all from Research Biochemicals Inc.

D2 /ml chimeric receptor = details: dopamine 0.1-1000 μM, CHO cells expressing D2/ml receptor (FIG. 3B)
[1] = tested on: non-transfected CHO cells; experiment: [Ca+2]i assay (Fura-2) in non-transfected CHO cells
D2(414) receptor [2] = biological target: T1, D2(414) receptor (Homo sapiens, UniProt P14416); details: dopamine 100 μM, CHO cells expressing D2(414) receptor (FIG. 3A)
T1 sequence (P14416 1-414 isoform P14416-2): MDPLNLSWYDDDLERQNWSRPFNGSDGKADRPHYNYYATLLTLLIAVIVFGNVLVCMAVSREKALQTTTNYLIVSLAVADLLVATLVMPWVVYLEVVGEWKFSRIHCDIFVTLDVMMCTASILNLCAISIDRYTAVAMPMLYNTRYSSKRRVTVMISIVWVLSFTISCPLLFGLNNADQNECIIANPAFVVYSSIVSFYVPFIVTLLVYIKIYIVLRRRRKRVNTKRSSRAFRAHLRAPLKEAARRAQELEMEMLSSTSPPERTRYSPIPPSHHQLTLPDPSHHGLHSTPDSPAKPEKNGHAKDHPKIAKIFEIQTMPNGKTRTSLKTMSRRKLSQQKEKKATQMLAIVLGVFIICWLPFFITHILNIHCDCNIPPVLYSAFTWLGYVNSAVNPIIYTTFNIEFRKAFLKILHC

D2(414) receptor [3] = biological target: T1, D2(414) receptor; experiment: Competition binding assay with [3H]-spiperone, D2(414) receptor; design: expressed in transfected cells
Experimental: as §1

CHO cells = experiment: Radioligand specific binding in non-transfected CHO cells; design: species or system Chinese hamster; details: preliminary studies
Experimental: Cells were detached from culture flasks with EDTA, pelleted at 1,000×g and resuspended in 1× binding buffer (100 mM Tris; 120 mM NaCl; 5 mM KCl; 1 mM MgCl2; 2 mM CaCl2; 1.1 mM ascorbic acid; pH 7.4) at ~1×10^6 cells/ml. Cells were homogenized with a Polytron (Brinkman) and the crude membrane fraction was pelleted at 17,000× g for 10 min. […] Triplicate binding reactions were done in IX binding buffer for 30 min. at 37°, then stopped by filtration through glass-fiber filters (Skatron) that were pre-soaked in 0.1% polyethyleneimine, followed by a 5 sec. wash with ice cold 0.1× binding buffer.

`CCN1CCC[C@H]1CNC(=O)c1cc(S(N)(=O)=O)ccc1OC` [(-) Sulpiride] was tested, and the Ki (D2 /ml receptor) was 45 nM.

With `NCCc1ccc(O)c(O)c1` [Dopamine] the “[Ca+2]i response” value (D2 /ml chimeric receptor) was “elevated in a dose dependent manner”, the Ki (D2 /ml receptor) was 2100 nM and the “[Ca+2]i” value ([1]; dopamine 1 mM) was “unaltered”. For the same compound, the “[Ca+2]i” value (D2(414) receptor [2]) was “failed to alter”.

Work on `CCCN(CCc1ccccc1)C1CCc2c(O)cccc2C1` (stereo not drawn) [N-0434] yielded a Ki (D2 /ml receptor) of 27 nM.

For `CN1CCc2cc(Cl)c(O)cc2[C@@H](c2ccccc2)C1` [SCH-23390], the Ki (D2 /ml receptor) was 3600 nM, the “Difference in Ki between D2(414) and D2/ml receptor” value (D2 /ml receptor; comparison of Ki at the two receptors, t-test) was “small” and the Ki (D2(414) receptor [3]) was 2100 nM.

`Oc1cc2c(cc1O)C(c1ccccc1)CNCC2` (stereo not drawn) [SKF-38393] was tested, and the Ki (D2 /ml receptor) was 36000 nM.

For `O=C(CCCN1CCC2(CC1)C(=O)NCN2c1ccccc1)c1ccc(F)cc1` [[^3 H]-spiperone], the Specific binding (CHO cells) was “no detectable specific binding”.

For `C[N+](C)(C)CCOC(N)=O` [carbachol], the “[Ca+2]i” value ([1]; carbachol 100 μM) was “unaltered”.
